Reference: publication PMC9000012, “Amorphous Inclusion Complexes: Molecular Interactions of Hesperidin and Hesperetin with HP-Β-CD and Their Biological Effects” (International Journal of Molecular Sciences, 2022)
≈ marks a conversion by molar mass, not a printed value. Entries after “also recorded” stand apart in the source; their conditions may differ. Read-outs that look alike come from different tables or passages of the source.

Columns and labels:
BChE = target: T1, BChE (Homo sapiens, UniProt P06276); assay: Butyrylcholinesterase (BChE) inhibition assay; type: biochemical
T1 construct: purchased Sigma Aldrich, Germany
T1 sequence (P06276 29-602, species assumed): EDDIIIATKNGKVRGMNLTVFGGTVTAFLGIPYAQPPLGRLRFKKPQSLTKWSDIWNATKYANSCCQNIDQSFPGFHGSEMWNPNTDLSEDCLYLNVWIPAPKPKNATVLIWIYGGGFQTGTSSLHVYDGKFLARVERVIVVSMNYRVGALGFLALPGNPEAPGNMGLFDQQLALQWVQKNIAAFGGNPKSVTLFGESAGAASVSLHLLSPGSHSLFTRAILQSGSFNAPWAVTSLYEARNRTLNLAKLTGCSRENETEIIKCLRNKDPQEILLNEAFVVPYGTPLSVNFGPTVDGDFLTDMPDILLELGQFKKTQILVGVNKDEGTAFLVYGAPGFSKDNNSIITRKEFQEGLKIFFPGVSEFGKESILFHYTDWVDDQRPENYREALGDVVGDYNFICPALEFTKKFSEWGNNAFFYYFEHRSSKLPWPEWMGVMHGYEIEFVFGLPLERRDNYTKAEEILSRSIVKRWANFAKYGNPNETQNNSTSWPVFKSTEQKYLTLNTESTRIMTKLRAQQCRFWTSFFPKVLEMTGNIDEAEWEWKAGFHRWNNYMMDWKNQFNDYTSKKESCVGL
Procedure: (§1) To assess the activity of Hed, Het, and systems, the spectrometric method according to the outlined procedure was applied. A Multiskan GO 1510 (Thermo Fisher Scientific, Vantaa, Finland) plate reader was used for measurements of 96-well plates of the maximum volume of 300 μL. The hydrolysis of acetylthiocholine/butyrylthiocholine caused a color change. The absorbance of the enzymes was measured at a wavelength of 412 nm, 10 min after pipetting on a microplate. The reaction mixture containing 0.1 mL of 0.3 mM 5,5-dithio-bis-(2-nitrobenzoic acid) (DTNB, Sigma Aldrich, Germany), 10 mM NaCl and 2 mM MgCl2·6H2O solution, 0.575 mL 50 mM Tris-HCl buffer (pH = 8.0), 25 µL of 0.28 units/mL AChE/BChE (Sigma Aldrich, Germany), and 0.2 mL of the tested system was measured at a wavelength of 405 nm and at a temperature of 22 °C. The measurement was conducted after 20 min (BChE) or 60 min (AChE) after adding all ingredients into a microplate. The blank sample contained Tris-HCl buffer instead of the tested compounds. All samples were analyzed in six independent replicates. The inhibitory activity of each enzyme was calculated with the use of following equation: Inhibition ability (%)=100−Ap−Abp×100/Ak−Ab where Ak is absorbance of control, Ab is the blank of the control, Ap is the absorbance of the sample, and Abp is the blank of the sample.

[1] = PAMPA BBB permeability assay; type: in vitro ADME; details: for Papp at 4 h: PAMPA
Procedure: (§2) In vitro gastrointestinal (GIT) and blood–brain barrier (BBB) permeability was studied using the PAMPA (Parallel Artificial Membrane Permeability Assay) model. The sandwich consists of two 96-well microfilter plates. The PAMPA system contains two chambers: the donor at the bottom and the acceptor chamber at the top. The chambers are separated by a 120 μm thick microfilter disc coated with a 20% (w/v) dodecane solution of a lecithin mixture (Pion, Inc.). The analyzed samples were prepared by dissolving an excess amount of pure compound and systems in water. In addition, the pure compound was dissolved in DMSO. The donor solution was adjusted to pH ≈ 6.8 for GIT application and to pH ≈ 7.4 for BBB application using 0.5 M NaOH. The plates were combined and then incubated for 4 h for both models in a humidity-saturated atmosphere with the temperature set at 37 °C. The apparent permeability coefficient (Papp) was calculated according to the following equation: Papp=−ln(1−CA/Cequilibrium)/S×(1/VD+1/VA)×t where VD is donor volume; VA is acceptor volume; Cequilibrium is equilibrium concentration, Cequilibrium=CD×VD+CA×VA/VD+VA; S is membrane area; and t is incubation time (in seconds).

AChE = target: T2, AChE (Homo sapiens, UniProt P22303); assay: Acetylcholinesterase (AChE) inhibition assay; type: biochemical
T2 construct: purchased Sigma Aldrich, Germany
T2 sequence (P22303 32-614): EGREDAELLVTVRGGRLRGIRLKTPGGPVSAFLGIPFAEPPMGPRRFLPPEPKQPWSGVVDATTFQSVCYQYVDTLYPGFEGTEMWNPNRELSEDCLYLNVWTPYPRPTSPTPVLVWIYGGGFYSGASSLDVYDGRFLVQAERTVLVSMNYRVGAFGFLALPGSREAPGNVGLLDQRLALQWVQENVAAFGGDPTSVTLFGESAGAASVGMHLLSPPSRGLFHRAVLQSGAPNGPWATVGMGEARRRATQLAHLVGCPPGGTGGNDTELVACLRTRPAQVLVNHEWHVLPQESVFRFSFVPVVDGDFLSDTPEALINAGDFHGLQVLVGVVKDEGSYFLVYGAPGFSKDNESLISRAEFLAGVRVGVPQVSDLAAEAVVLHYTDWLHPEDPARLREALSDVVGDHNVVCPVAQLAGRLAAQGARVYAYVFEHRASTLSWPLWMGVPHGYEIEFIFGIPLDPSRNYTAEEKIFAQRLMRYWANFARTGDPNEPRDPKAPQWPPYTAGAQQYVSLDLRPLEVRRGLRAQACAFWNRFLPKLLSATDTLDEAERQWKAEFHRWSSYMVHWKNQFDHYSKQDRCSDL
Procedure: as §1

physchem = type: physicochemical; details: for improvement in solubility: by amorphous inclusion complexes with HP-β-CD; for solubility at 24 h: thermodynamic from solid
Procedure: Concentrations of Hed and Het during solubility, dissolution rate, and permeability studies were measured by high-performance liquid chromatography with the DAD detector (HPLC-DAD). In this study, a Shimadzu Nexera (Shimadzu Corp., Kyoto, Japan) equipped with SCL-40 system controller; DGU-403 degassing unit; LC-40B XR solvent delivery module; SIL-40C XR auto sampler; CTO-40C column oven; SPD-M40 photo diode array detector, was used. For the stationary phase, a Dr. Maisch ReproSil-Pur Basic-C18 100 Å column, 5 µm particle size, 250 × 4.60 mm (Dr. Maisch, Ammerbuch-Entringen, Germany), was used. The mobile phase was methanol/0.1% acetic acid (65:35 v/v). The mobile phase was vacuum-filtered through a 0.45 µm nylon filter (Phenomenex, CA, USA). The experimental conditions were as follows: 0.9 mL·min^−1 flow rate, wavelength 280 nm for Hed and 288 nm for Het, and the column temperature at 30 °C. The injection volume differed depending on the assay. […] The method duration time was 10 min.
A total of 0.1 M HCl was obtained from the analytical weighed amount in accordance with the BASF SE recommendations. Phosphate buffer at pH 6.8 was prepared according to the following description: in a 1000 mL volumetric flask, we placed 250 mL of 0.2 N potassium dihydrogen phosphate solution, then added 112 mL of 0.2 N sodium hydroxide solution and filled the mixture up to 1000 mL with distilled water. High-quality pure water was prepared using a Direct-Q 3 UV purification system (Millipore, Molsheim, France, model Exil SA 67120).
An excess number of obtained systems and physical mixtures was placed in a 10 mL glass tube; then, 5.0 mL of medium (water, HCl 0.1 N or phosphate buffer (pH 6.8)) was added. All samples were mixed using a vortex mixer for 30 s and left at room temperature for 24 h. The obtained solutions were filtered through a 0.2 μm nylon membrane filter (Sigma-Aldrich, St. Louis, MO, USA) and analyzed for Hed and Het content using the developed and validated the HPLC method. The analysis was performed in triplicate.

[2] = PAMPA GIT permeability assay; type: in vitro ADME
Procedure: as §2

[3] = parameters: method as in doi:10.1016/j.lwt.2019.03.059; details: cited from earlier work

Row | Compound | BChE inhibition (BChE) | Papp at 4 h ([1]; pH 7.4) | AChE inhibition (AChE) | improvement in solubility (physchem) | solubility at 24 h (physchem; pH 6.8, aqueous buffer) | solubility at 24 h (physchem; simulated gastric fluid) | solubility at 24 h (physchem; water) | GIT PAMPA permeability, result in words ([2]; PAMPA) | Papp at 4 h ([2]; PAMPA, pH 6.8) | Papp at 4 h ([1]; compound dissolved in DMSO, donor pH ≈ 7.4, 4 h, 37 °C, read-out: PAMPA BBB Papp) | BBB PAMPA permeability, result in words ([1]; passive diffusion) | improved solubility ([3]; Het complex with HP-β-CD) | improved solubility ([3]; Het complex with β-CD) | Papp at 4 h ([2]; PAMPA, compound dissolved in DMSO, donor pH ≈ 6.8, 4 h, 37 °C, read-out: PAMPA GIT Papp) | GIT PAMPA permeability, result in words ([2]; passive diffusion)
1 | COc1ccc([C@@H]2CC(=O)c3c(O)cc(O[C@@H]4O[C@H](CO[C@@H]5O[C@@H](C)[C@H](O)[C@@H](O)[C@H]5O)[C@@H](O)[C@H](O)[C@H]4O)cc3O2)cc1O [Hed, hesperidin] | 13.86 ± 1.62% | 0.558 ×10⁻⁶ cm/s | 9.24 ± 0.81% | over 1000 times | 9 ± 2 µg/mL (≈ 14.7 µM) | 8 ± 3 µg/mL (≈ 13.1 µM) | 9 ± 1 µg/mL (≈ 14.7 µM) | poorly absorbed | 0.0554 ×10⁻⁶ cm/s | – | – | – | – | – | –
2 | COc1ccc([C@@H]2CC(=O)c3c(O)cc(O)cc3O2)cc1O [Het, hesperetin] | 12.96 ± 3.15% | – | – | > 2000 times | 15 ± 0.2 µg/mL (≈ 49.6 µM) | 6 ± 0.1 µg/mL (≈ 19.8 µM) | 8 ± 0.1 µg/mL (≈ 26.5 µM) | – | – | 5.58 ×10⁻⁶ cm/s | easily able to pass this biological barrier; also recorded: crosses the blood–brain barrier | 467 fold | 30 fold | 9.61 ×10⁻⁶ cm/s | readily absorbed; also recorded: well absorbed
